Measured values from ChEMBL document CHEMBL1138648, “Synthesis of new N-(2-(trifluoromethyl)pyridin-4-yl)anthranilic acid derivatives and their evaluation as anticancer agents” (2004).

Experiments:
Assay type in all cases: functional
NCI-H460 [1] = assay: In vitro percent of proliferation of vehicle treated NCI-H460 human lung cell lines was determined at 0.0010 M concentration
SF-268 [2] = assay: In vitro percent of proliferation of vehicle treated SF-268 human CNS cell lines was determined at 0.0010 M concentration
MCF7 [3] = assay: In vitro percent of proliferation of vehicle treated MCF-7 human breast cell lines was determined at 0.0010 M concentration
M14 = assay: Growth inhibitory activity against Melanoma M14 cell line was determined; details: Homo sapiens
K562 = assay: Growth inhibitory activity against Leukemia K-562 cell line was determined; details: Homo sapiens
MOLT-4 = assay: Growth inhibitory activity against Leukemia MOLT-4 cell line was determined; details: Homo sapiens
UACC-62 = assay: Growth inhibitory activity against Melanoma UACC-62 cell line was determined; details: Homo sapiens
SF-268 [4] = assay: Growth inhibitory activity against CNS cancer SF-268 cell line was determined; details: Homo sapiens
SF-295 = assay: Growth inhibitory activity against CNS cancer SF-295 cell line was determined; details: Homo sapiens
SF-539 = assay: Growth inhibitory activity against CNS cancer SF-539 cell line was determined; details: Homo sapiens
CCRF-CEM = assay: Growth inhibitory activity against Leukemia CCRF-CEM cell line was determined; details: Homo sapiens
SK-MEL-5 = assay: Growth inhibitory activity against Melanoma SK-MEL-5 cell line was determined; details: Homo sapiens
ACHN = assay: Growth inhibitory activity against Renal cancer ACHN cell line was determined; details: Homo sapiens
MDA-MB-435 = assay: Growth inhibitory activity against Breast cancer MDA-MB-435 cell line was determined; details: Homo sapiens
NCI/ADR-RES = assay: Growth inhibitory activity against Breast cancer NCI/ADR-RES cell line was determined; details: Homo sapiens
MDA-MB-231 = assay: Growth inhibitory activity against Breast cancer MDA-MB-231/ATCC cell line was determined; details: Homo sapiens
EKVX = assay: Growth inhibitory activity against non small cell lung cancer EKVX cell line was determined; details: Homo sapiens
NCI-H460 [5] = assay: Growth inhibitory activity against non small cell lung cancer H460 cell line was determined; details: Homo sapiens
NCI-H522 = assay: Growth inhibitory activity against non small cell lung cancer H522 cell line was determined; details: Homo sapiens
NCI-H23 = assay: Growth inhibitory activity against non small cell lung cancer NCI-H23 cell line was determined; details: Homo sapiens
NCI-H226 = assay: Growth inhibitory activity against non small cell lung cancer NCI-H226 cell line was determined; details: Homo sapiens
A549 = assay: Growth inhibitory activity against non small cell lung cancer A549/ATCC cells; details: Homo sapiens
NCI-H322M = assay: Growth inhibitory activity against non small cell lung cancer NCI-H322M cell line was determined; details: Homo sapiens
HOP-92 = assay: Growth inhibitory activity against non small cell lung cancer HOP-92 cell line was determined; details: Homo sapiens
UACC-257 = assay: Growth inhibitory activity against Melanoma UACC-257 cell line was determined; details: Homo sapiens
KM12 = assay: Growth inhibitory activity against colon cancer KM12 cell line was determined; details: Homo sapiens
MCF7 [6] = assay: Growth inhibitory activity against Breast cancer MCF-7 cell line was determined; details: Homo sapiens
HL-60 = assay: Growth inhibitory activity against Leukemia HL-60(TB) cell line was determined; details: Homo sapiens
RPMI-8226 = assay: Growth inhibitory activity against Leukemia RPMI-8226 cell line was determined; details: Homo sapiens
SR = assay: Growth inhibitory activity against Leukemia SR cell line was determined; details: Homo sapiens
786-0 = assay: Growth inhibitory activity against Renal cancer 786-0 cell line was determined; details: Homo sapiens
SN12C = assay: Growth inhibitory activity against Renal cancer SN12C cell line was determined; details: Homo sapiens
TK-10 = assay: Growth inhibitory activity against Renal cancer TK-10 cell line was determined; details: Homo sapiens
CAKI-1 = assay: Growth inhibitory activity against Renal cancer CAKI-1 cell line was determined; details: Homo sapiens
HCT-15 = assay: Growth inhibitory activity against colon cancer HCT-15 cell line was determined; details: Homo sapiens
SW-620 = assay: Growth inhibitory activity against colon cancer SW-620 cell line was determined; details: Homo sapiens
BT-549 = assay: Growth inhibitory activity against Breast cancer BT-549 cell line was determined; details: Homo sapiens
PC-3 = assay: Growth inhibitory activity against Prostate cancer PC-3 cell line was determined; details: Homo sapiens
Hs-578T = assay: Growth inhibitory activity against Breast cancer HS 578T cell line was determined; details: Homo sapiens
HCC 2998 = assay: Growth inhibitory activity against colon cancer HCC2998 cell line was determined; details: Homo sapiens
OVCAR-3 = assay: Growth inhibitory activity against Ovarian cancer OVCAR-3 cell line was determined; details: Homo sapiens
OVCAR-5 = assay: Growth inhibitory activity against Ovarian cancer OVCAR-5 cell line was determined; details: Homo sapiens
OVCAR-8 = assay: Growth inhibitory activity against Ovarian cancer OVCAR-8 cell line was determined; details: Homo sapiens
DU-145 = assay: Growth inhibitory activity against Prostate cancer DU-145 cell line was determined; details: Homo sapiens
A498 = assay: Growth inhibitory activity against Renal cancer A498 cell line was determined; details: Homo sapiens
HOP-62 = assay: Growth inhibitory activity against non small cell lung cancer HOP-62 cell line was determined; details: Homo sapiens
HCT-116 = assay: Growth inhibitory activity against colon cancer HCT116 cell line was determined; details: Homo sapiens

## COC(=O)c1ccccc1Nc1ccnc(C(F)(F)F)c1
NCI-H460 [1]
  Proliferation: 100%
SF-268 [2]
  Proliferation: 103%
MCF7 [3]
  Proliferation: 96%

## COCCCNC(=O)c1ccccc1Nc1ccnc(C(F)(F)F)c1
NCI-H460 [1]
  Proliferation: 105%
SF-268 [2]
  Proliferation: 97%
MCF7 [3]
  Proliferation: 70%

## O=C(Nc1cccnc1)c1ccccc1Nc1ccnc(C(F)(F)F)c1
NCI-H460 [1]
  Proliferation: 62%
SF-268 [2]
  Proliferation: 98%
MCF7 [3]
  Proliferation: 56%

## O=C(Oc1ccc(Cl)cc1)c1ccccc1Nc1ccnc(C(F)(F)F)c1
M14
  GI50: 2.1 µM
K562
  GI50: 3.6 µM
MOLT-4
  GI50: 100 µM
UACC-62
  GI50: 2.6 µM
SF-268 [4]
  GI50: 4.4 µM
SF-295
  GI50: 63 µM
SF-539
  GI50: 15 µM
CCRF-CEM
  GI50: 4.9 µM
SK-MEL-5
  GI50: 17 µM
ACHN
  GI50: 11 µM
MDA-MB-435
  GI50: 2.1 µM
NCI/ADR-RES
  GI50: 16 µM
MDA-MB-231
  GI50: 1.8 µM
EKVX
  GI50: 25 µM
NCI-H460 [5]
  GI50: 10 µM
NCI-H522
  GI50: 4.3 µM
NCI-H23
  GI50: 2.8 µM
NCI-H226
  GI50: 2.9 µM
A549
  GI50: 15 µM
NCI-H322M
  GI50: 17 µM
HOP-92
  GI50: 21 µM
UACC-257
  GI50: 4.5 µM
NCI-H460 [1]
  Proliferation: 9%
KM12
  GI50: 8.9 µM
MCF7 [6]
  GI50: 3.7 µM
HL-60
  GI50: 6.4 µM
RPMI-8226
  GI50: 2.9 µM
SR
  GI50: 4 µM
786-0
  GI50: 2.7 µM
SN12C
  GI50: 3 µM
TK-10
  GI50: 18 µM
CAKI-1
  GI50: 2.3 µM
HCT-15
  GI50: 2.1 µM
SW-620
  GI50: 6.6 µM
BT-549
  GI50: 15 µM
PC-3
  GI50: 17 µM
Hs-578T
  GI50: 30 µM
HCC 2998
  GI50: 13 µM
OVCAR-3
  GI50: 11 µM
OVCAR-5
  GI50: 26 µM
OVCAR-8
  GI50: 4.1 µM
DU-145
  GI50: 19 µM
SF-268 [2]
  Proliferation: 28%
MCF7 [3]
  Proliferation: 24%

## COc1ccc(OC(=O)c2ccccc2Nc2ccnc(C(F)(F)F)c2)cc1
NCI-H460 [1]
  Proliferation: 49%
SF-268 [2]
  Proliferation: 105%
MCF7 [3]
  Proliferation: 74%

## CCOC(=O)c1ccccc1Nc1ccnc(C(F)(F)F)c1
NCI-H460 [1]
  Proliferation: 102%
SF-268 [2]
  Proliferation: 103%
MCF7 [3]
  Proliferation: 98%

## O=C(Nc1ccccn1)c1ccccc1Nc1ccnc(C(F)(F)F)c1
NCI-H460 [1]
  Proliferation: 86%
SF-268 [2]
  Proliferation: 94%
MCF7 [3]
  Proliferation: 66%

## O=C(Oc1ccc(Cl)cc1Cl)c1ccccc1Nc1ccnc(C(F)(F)F)c1
M14
  GI50: 1.9 µM
K562
  GI50: 3 µM
MOLT-4
  GI50: 100 µM
UACC-62
  GI50: 2.3 µM
SF-268 [4]
  GI50: 3.1 µM
SF-295
  GI50: 15 µM
SF-539
  GI50: 3.8 µM
CCRF-CEM
  GI50: 3.5 µM
SK-MEL-5
  GI50: 2.8 µM
A498
  GI50: 21 µM
ACHN
  GI50: 13 µM
MDA-MB-435
  GI50: 2.9 µM
NCI/ADR-RES
  GI50: 3.6 µM
MDA-MB-231
  GI50: 2.2 µM
EKVX
  GI50: 19 µM
NCI-H460 [5]
  GI50: 4.3 µM
NCI-H522
  GI50: 4.6 µM
NCI-H23
  GI50: 3.5 µM
NCI-H226
  GI50: 3.4 µM
A549
  GI50: 11 µM
NCI-H322M
  GI50: 14 µM
HOP-92
  GI50: 12 µM
UACC-257
  GI50: 11 µM
NCI-H460 [1]
  Proliferation: 1%
KM12
  GI50: 3.7 µM
MCF7 [6]
  GI50: 3.6 µM
HL-60
  GI50: 6.6 µM
RPMI-8226
  GI50: 2.4 µM
SR
  GI50: 0.77 µM
786-0
  GI50: 1.9 µM
SN12C
  GI50: 3 µM
TK-10
  GI50: 4.1 µM
CAKI-1
  GI50: 2.1 µM
HCT-15
  GI50: 2.2 µM
SW-620
  GI50: 4.6 µM
BT-549
  GI50: 6.8 µM
PC-3
  GI50: 8.3 µM
Hs-578T
  GI50: 25 µM
HCC 2998
  GI50: 3.2 µM
OVCAR-3
  GI50: 11 µM
OVCAR-5
  GI50: 7.9 µM
OVCAR-8
  GI50: 4.8 µM
DU-145
  GI50: 16 µM
SF-268 [2]
  Proliferation: 9%
MCF7 [3]
  Proliferation: 3%

## CSc1ccc(OC(=O)c2ccccc2Nc2ccnc(C(F)(F)F)c2)cc1
NCI-H460 [1]
  Proliferation: 68%
SF-268 [2]
  Proliferation: 81%
MCF7 [3]
  Proliferation: 80%

## O=C(Nc1ccncc1)c1ccccc1Nc1ccnc(C(F)(F)F)c1
NCI-H460 [1]
  Proliferation: 99%
SF-268 [2]
  Proliferation: 96%
MCF7 [3]
  Proliferation: 79%

## O=C(Oc1cccc(Cl)c1)c1ccccc1Nc1ccnc(C(F)(F)F)c1
M14
  GI50: 1.8 µM
K562
  GI50: 3.2 µM
MOLT-4
  GI50: 0.93 µM
UACC-62
  GI50: 2 µM
SF-268 [4]
  GI50: 3 µM
SF-295
  GI50: 18 µM
SF-539
  GI50: 2.8 µM
CCRF-CEM
  GI50: 0.89 µM
SK-MEL-5
  GI50: 2.6 µM
MDA-MB-435
  GI50: 3 µM
NCI/ADR-RES
  GI50: 2.2 µM
MDA-MB-231
  GI50: 1.7 µM
EKVX
  GI50: 22 µM
NCI-H460 [5]
  GI50: 11 µM
NCI-H522
  GI50: 4.2 µM
HOP-62
  GI50: 25 µM
NCI-H23
  GI50: 2.4 µM
NCI-H226
  GI50: 2.1 µM
A549
  GI50: 18 µM
NCI-H322M
  GI50: 23 µM
HOP-92
  GI50: 8.7 µM
NCI-H460 [1]
  Proliferation: 3%
KM12
  GI50: 9.5 µM
MCF7 [6]
  GI50: 4.8 µM
HL-60
  GI50: 13 µM
RPMI-8226
  GI50: 1.8 µM
SR
  GI50: 0.44 µM
786-0
  GI50: 3.5 µM
SN12C
  GI50: 3 µM
TK-10
  GI50: 85 µM
CAKI-1
  GI50: 2.1 µM
HCT-15
  GI50: 3.7 µM
SW-620
  GI50: 4.4 µM
BT-549
  GI50: 6.8 µM
PC-3
  GI50: 7.4 µM
HCT-116
  GI50: 1.6 µM
Hs-578T
  GI50: 21 µM
HCC 2998
  GI50: 3.5 µM
OVCAR-3
  GI50: 3.8 µM
OVCAR-5
  GI50: 14 µM
OVCAR-8
  GI50: 3.5 µM
DU-145
  GI50: 14 µM
SF-268 [2]
  Proliferation: 5%
MCF7 [3]
  Proliferation: 12%

## O=C(O)c1ccccc1Nc1ccnc(C(F)(F)F)c1
NCI-H460 [1]
  Proliferation: 100%
SF-268 [2]
  Proliferation: 102%
MCF7 [3]
  Proliferation: 105%
